Among the test systems are HOP-62; SK-MEL-2; NCI-H226; SW-620; UACC-62; SR; ACHN; K562; COLO 205; BT-549; IGROV-1; SNB-19; SF-268; SK-MEL-28; UACC-257; EKVX; SF-295; A549; DU-145; LOX IMVI.
Common to all, as to test: DTP human tumour cell line panel, 48 h

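96-well plates; 48 h exposure; 5 concentrations. Endpoints by linear interpolation between flanking doses. Not reached: highest tested concentration assigned. Here, GI50 denotes the concentration required for 50% inhibition of growth.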 Activity calls are given as the source filed them. Cut-off read from the data, not from the text of the source: active = GI50 up to about 1.1 µM and inactive = higher.

One may read the GI50 as the concentration at which growth is held to half of that of the control. With `COC(=O)C1=C(C)NC2=C(C(=O)c3ccccc32)C1c1c[nH]nc1-c1ccccc1` (stereo unspecified), the GI50 was 64.9 µM (inactive) in the experiment on HOP-62; 33.7 µM (inactive) in the experiment on SK-MEL-2; 41.2 µM (inactive) in the experiment with NCI-H226; 59.3 µM (inactive) with SW-620; 35.6 µM (inactive) in the experiment on UACC-62; 24.4 µM (inactive) with SR. Moreover, the GI50 was 35.2 µM (inactive) in the experiment on ACHN; > 100 µM (inactive) with K562; 20.9 µM (inactive) in the experiment on COLO 205; > 100 µM (inactive) with BT-549; 20.2 µM (inactive) with IGROV-1; 41.5 µM (inactive) in the experiment with SNB-19. For the same compound, the GI50 in the experiment with SF-268 was 26.2 µM (inactive); in the experiment with SK-MEL-28 it was 49.4 µM (inactive); in the experiment with UACC-257, 70.5 µM (inactive); in the experiment on EKVX, 16.1 µM (inactive); with SF-295, > 100 µM (inactive); with A549, 47.6 µM (inactive). The GI50 in the experiment on DU-145 was > 100 µM (inactive).

In the case of `O=C(O)c1ccc(C2SCc3nc4ccccc4n32)cc1` (stereo unspecified), the GI50 in the experiment on LOX IMVI was > 10 µM (inactive); with HOP-62, > 100 µM (inactive); in the experiment with SK-MEL-2, > 100 µM (inactive); in the experiment on NCI-H226, > 100 µM (inactive); in the experiment on SW-620, > 100 µM (inactive); in the experiment with SR it was > 100 µM (inactive). Further, the GI50 in the experiment on ACHN, in the experiment with K562, with BT-549, in the experiment with IGROV-1, in the experiment with SNB-19 and in the experiment on SF-268 was > 100 µM (inactive) throughout. Further, the GI50 in the experiment on SK-MEL-28, with UACC-257, in the experiment on EKVX, in the experiment with SF-295, in the experiment with A549 and in the experiment with DU-145 was > 100 µM (inactive) each time.

`Cn1c2c(c3c(=O)[nH]ncc31)CCc1ccccc1-2`: the GI50 in the experiment with LOX IMVI is 17.6 µM (inactive); with HOP-62, 78.5 µM (inactive); with SK-MEL-2, 24.6 µM (inactive); in the experiment on NCI-H226, 29.4 µM (inactive); with SW-620, 34.1 µM (inactive); with SR, 20.5 µM (inactive). The GI50 with ACHN is 25.4 µM (inactive); with K562, 29.8 µM (inactive); in the experiment on COLO 205, 30 µM (inactive); in the experiment on BT-549 it was 23.8 µM (inactive); in the experiment on IGROV-1 it was 19 µM (inactive); in the experiment with SNB-19, 45.8 µM (inactive). For the same compound, the GI50 with SF-268 is 31.2 µM (inactive); with SK-MEL-28 it was 26.7 µM (inactive); in the experiment on UACC-257 it was 17.9 µM (inactive); in the experiment on EKVX it was 12.9 µM (inactive); with SF-295, 32.9 µM (inactive); in the experiment on A549 it was 29.1 µM (inactive). In the experiment with DU-145, the GI50 was 35.7 µM (inactive).

Turning to `O=c1cc(-c2ccccc2)[nH]c2ccc(S)cc12`, the GI50 in the experiment with HOP-62 is 70.3 µM (inactive); with NCI-H226, 16.1 µM (inactive); with SW-620, 38.7 µM (inactive); in the experiment on UACC-62, 17.2 µM (inactive); in the experiment with SR, 30.8 µM (inactive); in the experiment with ACHN it was 30.2 µM (inactive). For the same compound, the GI50 is 21.9 µM (inactive) with K562; 38.3 µM (inactive) with COLO 205; 23.5 µM (inactive) with BT-549; 29.8 µM (inactive) in the experiment with IGROV-1; 64.4 µM (inactive) in the experiment with SNB-19; 41.9 µM (inactive) in the experiment on SF-268. In addition, the GI50 is 28.8 µM (inactive) with SK-MEL-28; 42.5 µM (inactive) in the experiment on UACC-257; 38.5 µM (inactive) in the experiment with SF-295; 52.1 µM (inactive) in the experiment with A549; 52.2 µM (inactive) with DU-145.

On to `Cc1nc2c(Cl)cc(Cl)cc2c2c1CCO2`, for which the GI50 in the experiment with LOX IMVI, with SK-MEL-2, with NCI-H226, with SW-620, in the experiment with UACC-62 and in the experiment on SR was > 100 µM (inactive) each time. The GI50 in the experiment with ACHN, in the experiment on K562, with COLO 205, in the experiment with BT-549, in the experiment with IGROV-1 and with SNB-19 was > 100 µM (inactive) each time. The GI50 was > 100 µM (inactive) with SF-268; > 100 µM (inactive) with SK-MEL-28; > 100 µM (inactive) with UACC-257; 54 µM (inactive) in the experiment on EKVX; > 100 µM (inactive) with SF-295; > 100 µM (inactive) in the experiment with A549. For the same compound, the GI50 with DU-145 is > 100 µM (inactive).

Turning to `O=C(NC1(c2cc3ccccc3s2)CCCCC1)C1CCC1`, the GI50 with LOX IMVI, in the experiment with HOP-62, with SK-MEL-2, in the experiment on NCI-H226, in the experiment on SW-620 and in the experiment with UACC-62 was > 100 µM (inactive) in each case. For the same compound, the GI50 in the experiment on SR, with ACHN, with K562, in the experiment on COLO 205, in the experiment on BT-549 and in the experiment with IGROV-1 was > 100 µM (inactive) throughout. Besides, the GI50 is > 100 µM (inactive) in the experiment on SNB-19; 66.8 µM (inactive) in the experiment on SK-MEL-28; > 100 µM (inactive) in the experiment with UACC-257; > 100 µM (inactive) in the experiment with EKVX; > 100 µM (inactive) in the experiment with SF-295; > 100 µM (inactive) in the experiment on A549. Further, the GI50 with DU-145 was > 100 µM (inactive).

Consider `O=C(c1cc(Cl)ccc1Cl)N1CCN(c2ccc(Cl)c(Cl)c2)CC1`, for which the GI50 in the experiment with LOX IMVI was 26.4 µM (inactive); with HOP-62, 67.5 µM (inactive); in the experiment with NCI-H226, 13.6 µM (inactive); in the experiment with SW-620, 49.1 µM (inactive); with SR, 34.9 µM (inactive); in the experiment with ACHN it was 47 µM (inactive). The GI50 with K562 was 18.1 µM (inactive); in the experiment on BT-549 it was 25.2 µM (inactive); in the experiment with IGROV-1 it was 39.4 µM (inactive); in the experiment with SNB-19, > 10 µM (inactive); in the experiment on SF-268, 47.2 µM (inactive); in the experiment with SK-MEL-28, 39.6 µM (inactive). The GI50 with UACC-257 was 29.9 µM (inactive); in the experiment with EKVX, 37.2 µM (inactive); in the experiment on SF-295, 45.4 µM (inactive); in the experiment on A549, 26.9 µM (inactive); in the experiment on DU-145, 61.2 µM (inactive).

Consider `Cc1ccc(C)n2c1nc1ccccc12`, for which the GI50 in the experiment with HOP-62 was 85.5 µM (inactive); in the experiment with NCI-H226, > 100 µM (inactive); in the experiment with SW-620, > 100 µM (inactive); in the experiment on UACC-62 it was 80.5 µM (inactive); in the experiment on SR it was > 100 µM (inactive); in the experiment with ACHN it was > 100 µM (inactive). In addition, the GI50 in the experiment on K562, with COLO 205, in the experiment on BT-549, in the experiment on IGROV-1, with SNB-19 and in the experiment on SF-268 was > 100 µM (inactive) in each case. Moreover, the GI50 is > 100 µM (inactive) in the experiment on SK-MEL-28; > 100 µM (inactive) in the experiment on UACC-257; 62.7 µM (inactive) in the experiment with EKVX; > 100 µM (inactive) with SF-295; 33 µM (inactive) in the experiment on A549; > 100 µM (inactive) in the experiment on DU-145.

As for `Cn1c(=O)c2[nH]c(N/N=C3/SCC(=O)N3Cc3ccccc3)nc2n(C)c1=O`, the GI50 with HOP-62 is > 100 µM (inactive); with SK-MEL-2 it was 42.8 µM (inactive); in the experiment on NCI-H226, > 100 µM (inactive); in the experiment on UACC-62 it was > 100 µM (inactive); in the experiment with SR, 24.9 µM (inactive); with ACHN, > 100 µM (inactive). Besides, the GI50 in the experiment on K562 was 30.5 µM (inactive); with COLO 205, > 100 µM (inactive); in the experiment with BT-549, > 100 µM (inactive); in the experiment on IGROV-1 it was > 100 µM (inactive); in the experiment with SNB-19 it was > 100 µM (inactive); in the experiment with SF-268 it was 33.3 µM (inactive). Also, the GI50 was > 100 µM (inactive) in the experiment with SK-MEL-28; > 100 µM (inactive) with UACC-257; 42.1 µM (inactive) with EKVX; 21.2 µM (inactive) in the experiment on SF-295; > 100 µM (inactive) in the experiment on A549; 65.6 µM (inactive) in the experiment with DU-145.

For `c1ccc(CSSSCc2ccccc2)cc1` [DIBENZYL TRISULFIDE], the GI50 in the experiment on LOX IMVI is 0.621 µM (active); in the experiment on HOP-62 it was 0.964 µM (active); in the experiment with SK-MEL-2 it was 1.08 µM (active); with SW-620 it was 0.115 µM (active); in the experiment on UACC-62, 2.15 µM (inactive); in the experiment on SR, 4.06 µM (inactive). Besides, the GI50 in the experiment with ACHN was 1.69 µM (inactive); in the experiment with K562 it was 0.127 µM (active); with COLO 205, 1.87 µM (inactive); in the experiment on BT-549 it was 3.27 µM (inactive); in the experiment with IGROV-1, 2.8 µM (inactive); in the experiment with SNB-19 it was 15.3 µM (inactive). Also, the GI50 in the experiment with SF-268 is 3.57 µM (inactive); with SK-MEL-28 it was 20.7 µM (inactive); in the experiment with UACC-257, 5.57 µM (inactive); in the experiment with EKVX, 6.52 µM (inactive); with SF-295, 6.58 µM (inactive); in the experiment with A549, 5.09 µM (inactive). Also, the concentration for 50% growth inhibition (GI50) in the experiment on DU-145 was 1.12 µM (active).

For `O=C1C(CO)=C[C@@H](O)[C@H]2O[C@@H]12` [EPOXYDON], the GI50 in the experiment on LOX IMVI is 23.1 µM (inactive); in the experiment on HOP-62, > 100 µM (inactive); with SK-MEL-2, > 100 µM (inactive); in the experiment on NCI-H226, > 100 µM (inactive); in the experiment with SW-620 it was 37.9 µM (inactive); in the experiment with UACC-62 it was > 100 µM (inactive). In addition, the GI50 is > 100 µM (inactive) in the experiment on SR; 90.2 µM (inactive) with ACHN; > 100 µM (inactive) in the experiment on K562; > 100 µM (inactive) in the experiment with COLO 205; 98.9 µM (inactive) in the experiment with BT-549; > 100 µM (inactive) with IGROV-1. In addition, the GI50 with SF-268 is > 100 µM (inactive); in the experiment on SK-MEL-28 it was > 100 µM (inactive); in the experiment with EKVX, > 100 µM (inactive); in the experiment with SF-295 it was > 100 µM (inactive); with A549, 77.3 µM (inactive); in the experiment on DU-145, > 100 µM (inactive).

The values are drawn from ChEMBL document CHEMBL1201862, “PubChem BioAssay data set” (2004).
